Assay results reported in patent publication US12576083B2, “Combinational therapy of LSD1 inhibitors with P21 activators in the treatment of cancer” (Istituto Europeo di Oncologia S.r.l., priority 2017, dated 2026).

What was measured:
[1] = tested on: Acute promyelocytic leukemia (APL) UF1 cells; test: UF1 cells treated with MC2580: proliferation and Wright-Giemsa staining; format: cell-based; conditions: 2 μM, 7 days, DMSO control
Experimental: (§1) FIGS. 2A-2E. […] (FIG. 2A) Relative proliferation of UF1 cells treated with MC2580 (2 μM) and/or retinoic acid (10 nM) for 1 week. (FIG. 2B) Representative light micrograph show Wright-Giemsa staining of UF1 cell after treatment for 1 week. […] Values are normalized against GAPDH. (FIG. 2D) Immunoblot of PML-RARα in treated UF1 cells with indicated inhibitors. LSD1 inhibitors induces differentiation without PML-RARα degradation. (tubulin serves as control). (FIG. 2E) summary of cell-cycle status of UF1 cells following 1 week treatment with indicated inhibitors. (retinoic acid low(l)=10 nM, LSD1i=LSD1 inhibitor=MC2580).
(§2) Acute promyelocytic leukemia (APL) UF1 cells were treated with 2 μM LSD1 inhibitor MC2580, 10 nM retinoic acid (RA), 2 μM LSD1 inhibitor MC2580 plus 10 nM RA, and DMSO (control) for 7 days. The proliferation of the treated cells were quantified before treatment and post-treatment from each of day 2 to day 7 (FIG. 2A). The cells following the 1 week treatment were analyzed under light micrographs using Wright-Giemsa staining (FIG. 2B). The LSD1-inhibition induced expression of CD11b gene expression were analyzed. The mRNA of CD11b of the treated cells under each condition were normalized using GAPDH (FIG. 2C). PML-RARα protein level in the treated cells was analyzed by immune-blotting using an antibody against PML-RARα. Immuno-blotting of tubulin was used as loading control. […]

[2] = tested on: UF1 cells; test: Cell cycle analysis of UF1 cells; format: cell-based; conditions: 1 week treatment
Experimental: Acute promyelocytic leukemia (APL) UF1 cells were treated with 2 μM LSD1 inhibitor MC2580, 10 nM retinoic acid (RA), 2 μM LSD1 inhibitor MC2580 plus 10 nM RA, and DMSO (control) for 7 days. The proliferation of the treated cells were quantified before treatment and post-treatment from each of day 2 to day 7 (FIG. 2A). The cells following the 1 week treatment were analyzed under light micrographs using Wright-Giemsa staining (FIG. 2B). The LSD1-inhibition induced expression of CD11b gene expression were analyzed. The mRNA of CD11b of the treated cells under each condition were normalized using GAPDH (FIG. 2C). PML-RARα protein level in the treated cells was analyzed by immune-blotting using an antibody against PML-RARα. Immuno-blotting of tubulin was used as loading control. (FIG. 2D). […] Cell cycle analysis were performed following the 1 week treatment. […] (FIG. 2E).
UF1 cells were treated with p21-shRNA, scramble shRNA (SCR), LSD1 inhibitor MC2580, p21-shRNA plus MC2580, scramble shRNA (SCR) plus MC2580. Non-infected (NI) UF1 cells were included as control. The proliferation of the treated cells were quantified before treatment and post-treatment from each of day 2 to day 7 (FIG. 5C). The cells following the 1 week treatment were analyzed under light micrographs using Wright-Giemsa staining (FIG. 5D). Cell cycle analysis were performed following the 1 week treatment. […] (FIG. 5E).

[3] = tested on: PML-RARα; test: Immunoblot of PML-RARα in treated UF1 cells; format: cell-based; conditions: tubulin loading control
Experimental: as §1, §2

[4] = tested on: CD11b gene; test: CD11b gene expression in UF1 cells (mRNA normalized against GAPDH); format: cell-based
Experimental: as §1, §2

[5] = tested on: small cell lung carcinoma NCI-H69 cells; test: Cell cycle analysis of NCI-H69 cells; format: cell-based; conditions: 1 week treatment
Experimental: (§3) FIGS. 8A-8D. […] (FIG. 8B) Relative proliferation of NCI-H69 cells infected with SCR (control) or p21 shRNA treated with MC2580. (FIG. 8C) Summary of cell-cycle status of NCI-H69 cells following 10 days treatment with indicated inhibitors. (FIG. 8D) Immunoblot of P21 in MC2580-treated NCI-H69 cells. (SCR=Scramble shRNA, NI=Not Infected, LSD1i=LSD1 inhibitor=MC2580).
(§4) NCI-H69 cells were treated with p21-shRNA, scramble shRNA (SCR), LSD1 inhibitor MC2580, p21-shRNA plus MC2580, scramble shRNA (SCR) plus MC2580. Non-infected (NI) NCI-H69 cells were included as control. The proliferation of the treated cells were quantified before treatment and post-treatment from day 2, day 4, day 6, day 8, and day 10 (FIG. 8B). Cell cycle analysis were performed following the 1 week treatment.

[6] = tested on: p21; test: Western-blot of p21 in NCI-H69 cells; format: cell-based
Experimental: as §3, §4

[7] = tested on: primary human melanoma cell lines (MMC-27B, MMC-49, MMC-936, MMC-35, MMC-38B, MMC-34); test: Proliferation of six primary human melanoma cell lines with or without MC2580; format: cell-based; conditions: MC2580 2 μM, 6 days, versus cell lines having a shorter doubling time
Experimental: FIG. 14 depicts the proliferation of six primary human melanoma cell lines (MMC-27B, MMC-49, MMC-936, MMC-35, MMC-38B, MMC-34) over 6 days with or without treatment of LSD1 inhibitor MC2580 (2 μM) was analyzed. “MC” stands for MC2580 treated cells. “DMSO” stands for control cells treated with DMSO.
The proliferation of six primary human melanoma cell lines (MMC-27B, MMC-49, MMC-936, MMC-35, MMC-38B, MMC-34) over 6 days with or without treatment of an LSD1 inhibitor (MC2580) was analyzed. “MC” stands for MC2580 treated cells. Control cells (“DMSO”) were treated with DMSO.

[8] = tested on: p21; test: p21 expression (immunoblotting) in MMC-38B and MMC-34 melanoma cells; format: cell-based, human; conditions: MMC-38B and MMC-34, rescued by p21 knock-down
Experimental: FIG. 16C depicts the p21 expression level in melanoma cells analyzed in FIG. 16A.
MMC-38B and MMC-34 cells were treated with p21-shRNA (“P21KD-DMSO”), scramble shRNA (“SCR-DMSO”), scramble shRNA plus LSD1 inhibitor (MC2580) (“SCR-LSD1i”), or p21-shRNA plus MC2580 (“P21KD-LSD1i”). Tubulin was used as a loading control.

[9] = tested on: p21 gene; test: Chromosome Conformation Capture assays (3C-qPCR) in UF1 and NB4 cells; format: cell-based; conditions: UF1 and NB4 cells, 12, 24, or 36 hours
Experimental: FIG. 27 depicts results from chromosome conformation capture assays (3C-qPCR) performed with chromatin from UF1 and NB4 cells that were treated for indicated times with the LSD1 inhibitor MC2580. (NT: not treated).
Luciferase reporter assays were performed to measure the activity of enhancer 1 (“E1”) and enhancer 1 (“E2”) of the p21 gene promoter in 293T cells and the results are depicted in FIG. 26. The pGL3 plasmid without the enhancer region (empty) was used as a negative control. Chromosome Conformation Capture assays (3C-qPCR) were performed with chromatin from UF1 and NB4 cells that were treated with the LSD1 inhibitor MC2580 for 12, 24, or 36 hours and the results are depicted in FIG. 27. Untreated cells (“Neg”) were included as control.

`NC1CC1c1ccc(NC(=O)C(Cc2ccccc2)NC(=O)OCc2ccccc2)cc1` (stereo not drawn) [MC2580] was tested, and the “sensitivity of UF1 cells to LSD1 inhibitor” value [1] was “sensitive”, the “UF1 cells arrested at the G0/G1 phase” value [2] was “More UF1 cells were arrested at the G0/G1 phase” and the “UF1 cell differentiation and PML-RARα degradation” value [3] was “induces UF1 cells differentiation without PML-RARα degradation”. For the same molecule, the “expression of the CD11b gene (myeloid differentiation marker)” value [4] was “induces expression of the CD11b gene”, the “NCI-H69 cells arrested at the G0/G1 phase” value [5] was “More NCI-H69 cells were arrested at the G0/G1 phase” and the “p21 protein level in NCI-H69 cells” value [6] was “increased”. For the same molecule, the “proliferation of slow-cycling melanoma cell lines (MMC-38B, MMC-34)” value [7] was “more affected”, the “p21 expression in human primary melanoma cells” value [8] was “increase of p21 expression” and the “looping of E1 and E2 enhancer regions to the transcription start site of the p21 gene” value [9] was “induces dynamic looping”.
